Measurements as given in publication PMC10541425, “Targeting Toll-like receptor-driven systemic inflammation by engineering an innate structural fold into drugs” (Nature Communications, 2023).
Like-named read-outs stand apart in the source and are kept apart here. Residues, ends and D or L forms follow the SMILES beside them.

Experiments:
[1] = Cell viability of THP1-XBlue-CD14 reporter cells; settings: human; for viability at 20 h, 1 µM: 1 µM peptide; for viability at 20 h, 2 µM: 2 µM peptide; for viability at 20 h, 5 µM: 5 µM peptide; for viability at 20 h, 10 µM: 10 µM peptide; for viability at 20 h, 20 µM: 20 µM peptide
Description: (§5) Effects on NF-κB activation were assessed using THP1-XBlue-CD14 reporter cells (InvivoGen, San Diego, CA, USA). Briefly, 180,000 cells well^−1 were seeded in 96-well plates in phenol red RPMI media, supplemented with 10% (vv^−1) heat-inactivated FBS and 1% (vv^−1) Antibiotic-Antimycotic solution (AA). […] NF-κB activation was determined after 20 h of incubation according to the manufacturer’s instructions (InvivoGen, San Diego, CA, USA) by mixing 20 μL of supernatant with 180 μL of SEAP detection reagent (Quanti-BlueTM, InvivoGen, San Diego, CA, USA), followed by absorbance measurement at 600 nm. Data shown are mean values ± SD obtained from at least four independent experiments, all made in triplicate. In another set of experiments, the cells were stimulated with 100 ng mL^−1 of E. coli LPS, 1 μg mL^−1 S. aureus LTA, 1 μg mL^−1 E. coli PGN, 1 μg mL^−1 S. aureus PGN, or 10 μg mL^−1 S. cerevisiae zymosan in the presence or the absence of 10 μM of linear and stapled HVF18. The experiment was performed as described above.

hCD14 = target: T1, hCD14 (Homo sapiens, UniProt P08571, C306S); assay: Microscale thermophoresis, binding to CD14; settings: 10 mM Tris pH 7.4, read-out: Kd (µM) to CD14, MST
T1 construct: His-tag; non-native C-terminal linker with a protease-site-like motif, seen in the peptide map at 335-349 (C); made in house; host or cells: insect cells
T1 sequence (P08571 with tags, fused parts or gaps C306S limits assumed): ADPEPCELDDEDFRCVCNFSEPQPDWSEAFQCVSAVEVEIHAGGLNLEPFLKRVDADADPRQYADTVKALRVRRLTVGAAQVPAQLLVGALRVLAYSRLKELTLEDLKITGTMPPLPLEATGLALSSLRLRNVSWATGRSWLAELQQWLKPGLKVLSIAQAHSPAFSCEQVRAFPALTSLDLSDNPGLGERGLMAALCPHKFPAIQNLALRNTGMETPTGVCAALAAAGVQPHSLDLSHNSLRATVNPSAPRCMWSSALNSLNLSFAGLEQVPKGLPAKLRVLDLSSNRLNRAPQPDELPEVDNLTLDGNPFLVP
Description: Microscale thermophoresis (MST) was performed on a NanoTemper Monolith NT.115 apparatus (Nano Temper Technologies, Germany). A Monolith NT Protein labeling kit RED – NHS (Nano Temper Technologies, Germany) was used to label 20 μM of recombinant hCD14 according to the manufacturer’s protocol. […] The sample was then loaded into standard glass capillaries (Monolith NT Capillaries, Nano Temper Technologies), and MST analysis was performed (settings for the light-emitting diode and infrared laser were 80%).

in vitro = settings: human, THP1-XBlue-CD14 reporter cells, Cell viability
Description: as §5

[2] = test system: THP1-XBlue-CD14 reporter cells
Description: as §5

[3] = CD analysis after exposure to 80 °C (conformational stability); type: physicochemical; settings: then CD, minima at 208 and 222 nm
[4] = target: T2, P. aeruginosa elastase (PE) (Pseudomonas aeruginosa, UniProt P14756); type: in vitro ADME
T2 construct: purchased Calbiochem, Merck, Darmstadt, Germany
T2 sequence (P14756 198-498): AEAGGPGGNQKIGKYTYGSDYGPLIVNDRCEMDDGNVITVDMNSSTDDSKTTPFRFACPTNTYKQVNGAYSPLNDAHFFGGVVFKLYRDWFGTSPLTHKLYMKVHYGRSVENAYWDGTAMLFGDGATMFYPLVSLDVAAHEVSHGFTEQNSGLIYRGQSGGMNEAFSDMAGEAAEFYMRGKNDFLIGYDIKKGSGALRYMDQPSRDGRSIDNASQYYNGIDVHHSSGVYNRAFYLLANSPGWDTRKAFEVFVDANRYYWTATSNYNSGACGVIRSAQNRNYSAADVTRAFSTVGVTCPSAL
Description: (§1) The peptide was pre-mixed with Buffer A (1:3) 5 min before being loaded on the column. Protease-digested peptides were analyzed by HPLC as described above. Samples from two different digestions were analyzed.
(§2) Peptides were resuspended in endotoxin-free water at a final concentration of 1 mM. […] All digestions were performed in three independent experiments.
(§3) Two micrograms of peptide from each condition were loaded on 10–20% Novex Tricine pre-cast gels (Invitrogen, Carlsbad, CA, USA). The run was performed at 100 V for 100 min. The gel was stained by using Coomassie Brilliant blue (Invitrogen, Carlsbad, CA, USA), and images were acquired with a Gel Doc Imager (Bio-Rad Laboratories, Hercules, CA, USA). Samples from three independent digestions were analyzed.
(§4) LC-MS/MS analysis was performed using an HFX Orbitrap MS system (Thermo Scientific, San Jose, CA, USA) equipped with a Dionnex 3000 Ultimate HPLC (Thermo Fisher, USA). Settings were used as previously described by Petruk et al.[55] with minor changes. […] The precursor tolerance was set to 10 ppm and 0.02 Da for the MSMS fragments, and no enzyme was selected, allowing unspecific cleavage. Samples from two independent digestions were analyzed.

[5] = target: T3, human neutrophil elastase (HNE) (Homo sapiens, UniProt P08246); assay: Protease degradation with human neutrophil elastase (SDS-PAGE, RP-HPLC, LC-MS/MS); type: in vitro ADME
T3 construct: purchased Calbiochem, Merck, Darmstadt, Germany
T3 sequence (P08246 30-267): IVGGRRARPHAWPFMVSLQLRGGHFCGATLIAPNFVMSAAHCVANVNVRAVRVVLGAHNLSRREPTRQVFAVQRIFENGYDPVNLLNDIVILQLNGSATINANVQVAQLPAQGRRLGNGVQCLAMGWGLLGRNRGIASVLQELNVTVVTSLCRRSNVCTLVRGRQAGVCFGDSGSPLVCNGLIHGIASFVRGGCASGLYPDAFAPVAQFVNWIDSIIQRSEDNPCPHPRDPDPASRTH
Description: as §1, §2, §3, §4

Structure (SMILES)	viability at 20 h, 1 µM ([1]; with LPS, replicate 1) [%]	viability at 20 h, 1 µM ([1]; with LPS, replicate 2) [%]	viability at 20 h, 1 µM ([1]; with LPS, replicate 3) [%]	viability at 20 h, 1 µM ([1]; with LPS, replicate 4) [%]	viability at 20 h, 2 µM ([1]; with LPS, replicate 1) [%]	viability at 20 h, 2 µM ([1]; with LPS, replicate 2) [%]	viability at 20 h, 2 µM ([1]; with LPS, replicate 3) [%]	viability at 20 h, 2 µM ([1]; with LPS, replicate 4) [%]	viability at 20 h, 5 µM ([1]; with LPS, replicate 1) [%]	viability at 20 h, 5 µM ([1]; with LPS, replicate 2) [%]	viability at 20 h, 5 µM ([1]; with LPS, replicate 3) [%]	viability at 20 h, 5 µM ([1]; with LPS, replicate 4) [%]	viability at 20 h, 10 µM ([1]; with LPS, replicate 1) [%]	viability at 20 h, 10 µM ([1]; with LPS, replicate 2) [%]	viability at 20 h, 10 µM ([1]; with LPS, replicate 3) [%]	viability at 20 h, 10 µM ([1]; with LPS, replicate 4) [%]	viability at 20 h, 20 µM ([1]; with LPS, replicate 1) [%]	viability at 20 h, 20 µM ([1]; with LPS, replicate 2) [%]	viability at 20 h, 20 µM ([1]; with LPS, replicate 3) [%]	viability at 20 h, 20 µM ([1]; with LPS, replicate 4) [%]	also measured
CC[C@H](C)[C@H](NC(=O)[C@H](Cc1c[nH]c2ccccc12)NC(=O)[C@H](CCCCN)NC(=O)[C@H](CCCCN)NC(=O)[C@H](CC(C)C)NC(=O)[C@H](CCCNC(=N)N)NC(=O)[C@H](Cc1ccccc1)NC(=O)[C@@H](NC(=O)[C@@H](N)Cc1cnc[nH]1)C(C)C)C(=O)N[C@@H](CCC(N)=O)C(=O)N[C@@H](CCCCN)C(=O)N[C@H](C(=O)N[C@H](C(=O)N[C@@H](CC(=O)O)C(=O)N[C@@H](CCC(N)=O)C(=O)N[C@@H](Cc1ccccc1)C(=O)NCC(=O)N[C@@H](CCC(=O)O)C(=O)O)[C@@H](C)CC)C(C)C [HVF18] (H-HVFRLKKWIQKVIDQFGE-OH)	79.5	76.5	83.4	78.1	94.1	84.3	83.2	88.3	107	97.5	80.5	82.3	89.5	92.1	82.5	103	90.6	85.3	77.4	91.1	viability at 20 h, 20 µM ([1]; without LPS, replicate 1): 99.3%; viability at 20 h, 20 µM ([1]; without LPS, replicate 2): 72.9%; viability at 20 h, 20 µM ([1]; without LPS, replicate 3): 84.9%; viability at 20 h, 20 µM ([1]; without LPS, replicate 4): 73.7%; Kd (hCD14; with NaCl (150 mM), measurement 1): 3.2 µM; Kd (hCD14; with NaCl (150 mM), measurement 2): 2.5 µM; Kd (hCD14; with NaCl (150 mM), measurement 3): 1.1 µM; Kd (hCD14; with NaCl (150 mM), measurement 4): 2.7 µM; Kd (hCD14; with NaCl (150 mM), measurement 5): 2.5 µM; Kd (hCD14; with NaCl (150 mM), measurement 6): 1.6 µM; Kd (hCD14; without NaCl, measurement 1): 8.3 µM; Kd (hCD14; without NaCl, measurement 2): 6.2 µM; Kd (hCD14; without NaCl, measurement 3): 5.9 µM; Kd (hCD14; without NaCl, measurement 4): 8.7 µM; Kd (hCD14; without NaCl, measurement 5): 7.5 µM; Kd (hCD14; without NaCl, measurement 6): 2.1 µM; viability at 20 h, 10 µM (in vitro; LTA 1 µg/ml + peptide): 105%; viability at 20 h, 10 µM (in vitro; PGN-SA 10 µg/ml + peptide): 74.3%; Cell viability, PGN-EB 1 µg/ml + peptide [2]: 85.0457
CC[C@H](C)[C@H](NC(=O)[C@H](Cc1c[nH]c2ccccc12)NC(=O)[C@H](CCCCN)NC(=O)[C@H](CCCCN)NC(=O)[C@H](CC(C)C)NC(=O)[C@H](CCCNC(=N)N)NC(=O)[C@H](Cc1ccccc1)NC(=O)[C@@H](NC(=O)[C@@H](N)Cc1c[nH]cn1)C(C)C)C(=O)N[C@@]1(C)CCCC=CCCC[C@@](C)(C(=O)N[C@@H](CCC(N)=O)C(=O)N[C@@H](Cc2ccccc2)C(=O)NCC(=O)N[C@@H](CCC(=O)O)C(=O)O)NC(=O)[C@H]([C@@H](C)CC)NC(=O)[C@H](C(C)C)NC(=O)[C@H](CCCCN)NC1=O [sHVF18]	88.7	90.5	78.9	86.3	102	92.8	74.9	96.3	106	93.7	79.1	95	99.1	88.8	82.4	87.8	104	70.9	67.5	77.9	Conformational stability after exposure to 80 °C (CD analysis) [3]: still presented an α-helical spectrum; Resistance to P. aeruginosa elastase (in words) ([4]; 0.2 µg PE, 0–18 h, SDS-PAGE, RP-HPLC, LC-MS/MS, versus linear peptide): improved resistance; Fragmentation seen by LC-MS/MS after PE digestion (in words) ([4]; 30 min and 3 h): no identified sHVF18 fragments; viability at 20 h, 20 µM ([1]; without LPS, replicate 1): 112%; viability at 20 h, 20 µM ([1]; without LPS, replicate 2): 69.7%; viability at 20 h, 20 µM ([1]; without LPS, replicate 3): 81.5%; viability at 20 h, 20 µM ([1]; without LPS, replicate 4): 90.5%; viability at 20 h, 10 µM (in vitro; LTA 1 µg/ml + peptide): 91.3%; viability at 20 h, 10 µM (in vitro; PGN-SA 10 µg/ml + peptide): 55.8%; Fragmentation seen by LC-MS/MS after HNE digestion (in words) [5]: no identified sHVF18 fragments; Cell viability, PGN-EB 1 µg/ml + peptide [2]: 75.0616; Cell viability, PGN-SA 10 µg/ml + peptide [2]: 69.8483; Cell viability, Zymosan 10 µg/ml + peptide [2]: 73.0816
